Source: PubChem BioAssay (NCI)
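How tested: cells in 96-well plates exposed to compound for 48 hours at five concentrations. TGI denotes the concentration required for complete inhibition of growth.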 Where a SMILES comes first, the peptide text is derived from it. The star is where a group is joined. Boc = CC(C)(C)OC(=O)*

Legend:
Assay in all cases: DTP human tumour cell line panel, 48 h
[1] = test system: SF-268 CNS
[2] = test system: HT29 colon
[3] = test system: HCT-15 colon
[4] = test system: M14 melanoma
[5] = test system: A549 NSCLC
[6] = test system: OVCAR-5 ovarian
[7] = test system: SK-OV-3 ovarian
[8] = test system: HCT-116 colon
[9] = test system: IGROV1 ovarian
[10] = test system: MDA-N

| Compound | TGI [1] [µM] | TGI [2] [µM] | TGI [3] [µM] | TGI [4] [µM] | TGI [5] [µM] | TGI [6] [µM] | TGI [7] [µM] | TGI [8] [µM] | TGI [9] [µM] | TGI [10] [µM] |
| --- | --- | --- | --- | --- | --- | --- | --- | --- | --- | --- |
| c1coc(-c2nccc3c2[nH]c2ccccc23)c1 | > 100 | > 100 | > 100 | > 100 | > 100 | > 100 | > 100 | > 100 | > 100 | > 100 |
| O=C(c1ccccc1)N1CCN(C(=S)NC2CCCCC2)C1=S | 42.5 | 44.1 | 33.2 | 31.3 | 30.6 | 52.5 | 65.6 | 32.6 | 60.8 | 42.8 |
| O=c1ccc2ccc(CBr)cc2o1 |  | 6.41 | 3.45 | 8.92 | 30.1 | 3.29 |  | 3.74 | 13.1 | 15.1 |
| CCn1c2nc(=O)n(CCCCCCCCSC(c3ccccc3)(c3ccccc3)c3ccccc3)c(=O)c-2nc2ccccc21 | > 100 | 18.1 | > 100 | 31.6 |  | > 100 | > 100 | > 100 | > 100 | > 100 |
| Cn1cnc(N2CCCC2)c(C#N)c1=S | > 100 | > 100 | > 100 | > 100 | > 100 | > 100 |  | > 100 | > 100 | > 100 |
| Cc1c(C(=O)O)n2c(=S)[nH]nc2c2ccccc12 | > 100 | > 100 | > 100 | > 100 | > 100 | > 100 | > 100 | > 100 | > 100 | > 100 |
| CCOC(=O)/C=C/C(=O)O/C=C/[N+](=O)[O-] | > 100 | > 100 | > 100 | > 100 |  | > 100 | > 100 | > 100 | > 100 | > 100 |
| Cn1c(-c2ccc[se]2)ccc1-c1ccc(C=O)[se]1 | 59.1 | > 100 | > 100 | > 100 | > 100 |  | 42.3 | > 100 | 0.487 | > 100 |
| CCOP(=O)(CCCC(O)CNc1nc(N)nc(Cl)c1N=Nc1ccc(Cl)cc1)OCC (centres undefined) | 18.1 | 23.4 | 20.2 |  | 23.9 | 25.5 | 19.2 | 21.7 | 26.1 | 18.8 |
| Cc1ccc(Cc2cc(N3CCN(c4cccc(Cl)c4)CC3)nnc2C)cc1 | > 100 | 81.2 | > 100 | > 100 | > 100 | > 100 | > 100 | > 100 |  | > 100 |
| CC(C)C(Nc1ncnc2nc[nH]c12)C(=O)O (centres undefined) | > 100 | > 100 | > 100 | > 100 | > 100 | > 100 | > 100 | > 100 | > 100 | > 100 |
| C/C=C1/CN2CCC34c5ccccc5N(C)C23C2CC1C4(C(=O)OC)C(OC(C)=O)O2 (centres undefined) | > 100 | > 100 | > 100 | > 100 | > 100 | > 100 | > 100 | > 100 | > 100 | > 100 |
| CCOC(=O)c1c(NS(=O)(=O)c2ccc(C)cc2)sc2c1CCCC2 | > 100 | 47.6 | 42.1 | > 100 | > 100 | > 100 |  | 73 | > 100 | > 100 |
| COC1=C[C@]2(CCC(=O)O2)[C@@H]2Cc3ccccc3[C@H](O)[C@@H]2C1=O | > 100 | > 100 | > 100 | > 100 | > 100 | > 100 | > 100 | > 100 | > 100 | 30.1 |
| C[C@@]1(CCCCCCCCCCc2ccccc2)C[C@@]2(C)OC(=O)C[C@H]2OO1 | 7.95 | 31.5 | 44.3 | 2.98 | > 84.6 | 3.94 | 73.3 | 32.5 | 53.3 | 3.96 |
| Cc1cc2cc3cc(C)c(N)cc3nc2cc1N | 2.71 | 1.6 | 2.2 | 21.9 | 2.07 | 2.65 |  | 1.31 | 1.7 | 2.93 |
| O=c1c2c3c(sc2nc2n1N=CN(c1ccccc1)C2)CCCC3 | > 100 | > 100 | > 100 | > 100 | > 100 | > 100 | > 100 | > 100 | > 100 | > 100 |
| CC(=O)OCC1OC(N2C(=O)NC(=O)C3C=C4CCCCC4=CC32)CC1OC(C)=O (centres undefined) | > 100 | > 100 | > 100 | > 100 | > 100 | > 100 | > 100 | > 100 | > 100 | > 100 |
| COC(=O)Nc1nc2ccc(S(=O)(=O)Nc3ccccn3)cc2[nH]1 | > 100 | > 100 | > 100 | > 100 | > 100 | > 100 | > 100 | > 100 | > 100 | > 100 |
| COc1ccccc1NC(=S)N=Nc1c(O)[nH]c2ccccc12 | 13.5 | > 100 | > 100 | > 100 | > 100 | > 100 | > 100 | > 100 | > 100 | > 100 |
| Cc1nnc(N)nc1/C=C\c1ccc(Cl)cc1Cl | > 100 | 41.7 | > 100 | 85.3 | > 100 | > 100 | > 100 | 63.1 | 39.4 | > 100 |
| CCC(=O)Nc1cccc(N=Cc2ccc(OC(=O)/C=C\c3ccccc3)cc2)c1 | > 75 | > 75 | > 75 | > 75 | > 75 | > 75 | > 75 | > 75 | > 75 | > 75 |

| Compound | TGI [1] [µM] | TGI [2] [µM] | TGI [3] [µM] | TGI [4] [µM] | TGI [5] [µM] | TGI [6] [µM] | TGI [7] [µM] | TGI [8] [µM] | TGI [9] [µM] | TGI [10] [µM] |
| --- | --- | --- | --- | --- | --- | --- | --- | --- | --- | --- |
| C=C(C)[C@@H](O)[C@H](O)C[C@H](C)C1CC[C@]2(C)C1=CC[C@@H]1[C@@]3(C)CC[C@@H](OC(C)=O)C(C)(C)[C@@H]3C[C@@H](OC3OC(COC(C)=O)C(O)C(O)C3O)[C@]12C (some centres undefined) | 9.86 | 4.04 | 11.7 | 7.38 | 12.2 | 4.43 | 10.4 | 5.88 | 6.4 | 8.55 |
| CCOC(=O)c1[nH]cc(C)c1-c1cccn1-c1ccc(Cl)cc1[N+](=O)[O-] | 61.5 | 30.7 | > 100 | 41 | 92.9 | > 100 |  | 30.4 | 49.9 | 69.6 |
| O[C@@H]1C[C@H](Cl)c2c(Cl)sc(Cl)c21 | > 100 | > 100 | > 100 | > 100 | > 100 | > 100 | > 100 | > 100 | > 100 | > 100 |
| O=C1/C(=C/c2ccc(O)cc2)CCCC1CN1CCCCC1 (centres undefined) | 11.9 | 6.91 | 2.71 | 8.07 | 31.9 | 30.8 | 30.4 | 3.22 | 3.8 | 10.8 |
| COC(=O)C(Cc1ccccc1)NC(=O)C(CS)NC(=O)OC(C)(C)C (stereo not drawn) (Boc-Cys-Phe-OMe; configuration not given here) | > 100 | > 100 | > 100 | > 100 | > 100 | > 100 | > 100 | > 100 | > 100 | > 100 |
| CSc1ncc2c(n1)-c1ccccc1OC2N1CCOCC1 (centres undefined) | > 100 | > 100 | > 100 | > 100 | > 100 | > 100 | > 100 | > 100 | > 100 | > 100 |
| CCN1c2ccccc2NC(=S)c2c1n[nH]c2-c1ccccc1 | 95.6 | > 100 | 87.9 | > 100 | 84.5 | > 100 | > 100 | > 100 | > 100 | 32.6 |
| Fc1ccc(-c2sc(-c3ccsc3)cc2Cc2ccsc2)cc1 | > 10 | > 10 | > 10 | > 10 | > 10 |  | > 10 |  | > 10 | > 10 |
| CC(=O)OCC1OC(n2cnc3nc(Br)[nH]c(=O)c32)C(OC(C)=O)C1OC(C)=O (centres undefined) | > 100 | > 100 | > 100 | > 100 | > 100 | > 100 | > 100 | > 100 | > 100 | > 100 |
| COC(C/C(=C/CO[Si](C(C)C)(C(C)C)C(C)C)C(=O)N(C(=O)OC(C)(C)C)c1ccccc1I)OC | > 100 | > 100 | > 100 | > 100 | > 100 | > 100 | > 100 | > 100 | 29.6 | > 100 |
| Cc1c(Cc2ccccc2)n(C(C)OCCN(OC(=O)Oc2ccccc2)C(=O)Oc2ccccc2)c(=O)[nH]c1=O (centres undefined) | 40.3 | 32.1 | 28.3 | 32 | 73.9 | 31.6 | 46.3 | 41.6 | 31.7 | 41.4 |
| CC(=O)C1=C(C)O[C@@H]2O[C@H](COCc3ccccc3)[C@@H](OCc3ccccc3)[C@H](O)[C@@H]2S1 | 32 | 43.2 | 71.6 | 39.8 | > 100 | 84.1 | 87.6 | 32 | 40.9 | 51.7 |
| COc1cc(C2S/C(=C/c3ccccc3)C(=O)N2Cc2ccccc2)cc(OC)c1OC (centres undefined) | > 100 | > 100 | > 100 | > 100 | > 100 | > 100 | > 100 | 47 | > 100 | 52.6 |
| O=C(NC(=S)Nc1ccc([N+](=O)[O-])cc1)c1ccc2c(c1)Sc1ccccc1O2 | > 100 | > 100 | > 100 | > 100 | > 100 | > 100 | > 100 | > 100 | > 100 | > 100 |
| Clc1ccc(CCNC2(c3cc4ccccc4s3)CCCCC2)cc1Cl | > 100 | 87.1 | 37.7 | > 100 | > 100 | 68.1 | > 100 | 29.3 | > 100 | > 100 |
| COC(=O)CN(CC(=O)NCCCBr)C1CCCCC1N(CC(=O)OC)CC(=O)OC (centres undefined) | > 100 | > 100 | > 100 |  | > 100 | > 100 | > 100 | > 100 | > 100 | > 100 |
| COc1cc(C2c3cc4c(cc3OC(NNc3ccccc3)C2C)OCO4)cc(OC)c1OC (centres undefined) | 38.1 | 6.61 |  | 22.7 | > 42.3 | > 81 | > 100 | 13.9 | > 100 | 3.43 |
| COC1/C=C/C=C(/C)Cc2cc(O)c(Cl)c(c2)N(C)C(=O)CC(OC(=O)C(C)C)C2(C)OC2C(C)C2CC1(O)NC(=O)O2 (centres undefined) | 44.2 | < 0.01 |  |  | > 100 | > 71.2 | > 100 | > 100 | > 100 | < 0.01 |
| Nc1nc(Cl)cc(OCC2(CO)CCCC2)n1 | > 100 | > 100 | > 100 |  | > 100 | > 100 |  | > 100 | > 100 | > 100 |
| COC(=O)c1c(O)ccc2c1c1cc3ccccc3cc1n2Cc1cc(OC)cc(OC)c1 | > 26.9 | > 48.1 | > 100 | > 100 | > 100 | > 100 |  | > 100 | 1.69 | 3.72 |
| CN(C)CN1CSC(=S)N(CN(C)C)C1 | > 100 | > 100 | > 100 | > 100 | > 100 | > 100 |  | > 100 | > 100 | > 100 |
